From US10836728B2, “Substituted 3-dialkylaminomethyl-piperidin-4-yl-benzamides and methods of making and using same” (MEBIAS DISCOVERY, INC., priority 2017, dated 2020)
Read-outs that look alike come from different tables or passages of the source.

Key:
human OPRM1 (μ, MOR) [1] = molecular target: T1, human OPRM1 (μ, MOR) (Homo sapiens (Human), UniProt P35372); test: cell-based; assay type: cell-based; details: for EC50: PathHunter human OPRM1 Arrestin CHO-K1 cell line, read-out: cAMP EC50; for Emax: OPRM1, read-out: cAMP Emax
Protocol: G-protein signaling was measured via second messenger cAMP modulation. Detection of cAMP modulation was accomplished in the PathHunter human OPRM1 (μ, MOR) Arrestin CHO-K1 cell line using the Dynamic2 cAMP Kit from Cisbio.

human OPRM1 (μ, MOR) [2] = molecular target: T1, human OPRM1 (μ, MOR); test: cell-based; assay type: cell-based; details: for EC50: PathHunter human OPRM1 Arrestin CHO-K1 cell line, read-out: β-Arrestin EC50; for Emax: OPRM1, read-out: β-Arrestin Emax
Protocol: The technology is based on Enzyme Fragment Complementation (EFC) with β-galactosidase (β-Gal) as the reporter. […] EA is fused to β-arrestin-2, and ED is fused to the C-terminus of the GPCR of interest. When a ligand binds and the GPCR is activated, β-arrestin-2 is recruited to the receptor resulting in an ED/EA complementation, restoring β-Gal activity, which is measured using chemiluminescence. For this assay, the PathHunter human OPRM1 (μ, MOR) Arrestin CHO-K1 cell line was used.

MOR [3] = molecular target: T2, MOR (Homo sapiens (Human), UniProt P35372); assay type: cell-based; details: for ΔRA of compound: β-arrestin vs cAMP, from EC50 and Emax
Protocol: In certain embodiments, the ability of a compound to activate G-protein or β-arrestin is not an on/off switch for a given pathway, but rather a continuous function. To capture this, each compound is measured for activity in cell assays that are linked to β-arrestin recruitment and G-protein signaling. By comparing the activity between these two measures (accounting for both EC50 and maximal response reached, Emax) a relative activity (RA) value is determined.
In the case of MOR it is desirable to have high activation of the G-protein pathway while reducing activation of β-arrestin.

tail flick response = test: Rat tail flick nociceptive pain model; assay type: in vivo; details: SC
Protocol: In rodents, the tail flick response to radiant heat is commonly used as a model to detect potentially useful analgesic agents.
Procedurally, the time (seconds) required to elicit a tail flick response induced by focused radiant heat is measured as the pain threshold in groups of 8 Sprague-Dawley (SD) male rats weighing 110±20 g. Prolongation by 50 percent or more (≥50) of the time required to elicit a tail flick response 15 and 30 minutes following administration of test substance indicates possible analgesic activity. Also, one-way ANOVA followed by Dunnett's test is applied for comparison between vehicle control and treatment groups.

intestinal transit = test: Gastrointestinal motility (charcoal transit); details: rat, SC
Protocol: At 30 minutes post subcutaneous dosing, the animals were given a suspension of 5% charcoal in 10% gum arabic solution (2 ml/animal p.o.) and sacrificed 15 minutes later. The intestine was removed, and the length of the gut in cm (GL) as well as extent of charcoal movement from the pylorus to the beginning of the charcoal column in cm (CP) was measured.
Intestinal transit (IT) was calculated as IT=(CP/GL)×100%. A 30% or more (30) increase or decrease intestinal transit (IT), relative to the vehicle control group, was considered significant. The values in animals treated with test compounds compared with vehicle control group were also analyzed by using one-way ANOVA followed by Dunnett's test. Differences are considered statistically significant at P<0.05.

place preference = test: Conditioned place preference; details: rat, SC
Excerpt: Although a number of different designs and apparatuses are used in this model, the basic characteristics of this task involve the association of a particular environment with drug treatment, followed by the association of a different environment with the absence of the drug (i.e., the drug's vehicle). A common variation of this design consists of a three-compartment chamber with the outer compartments being designed to have different characteristics (e.g., white vs. black walls, pine vs. corn bedding, horizontal grid vs. cross-grid flooring). […] On the following day, the rat is injected with the drug's vehicle and then placed in the opposite compartment. […] Afterward, a test session is conducted, which consists of placing the animal in the center compartment and then, after opening the gates to both of the outer compartments, recording the time the animal spends in each of the outer compartments during the session.
In certain embodiments, there are three days of adaptation where any preferences are assessed. Then, compartment assignments for drug or saline are based on any existing preferences. […] There are 8 days of training followed by the test day when both compartments are accessible and the computer counts how much time is spent in the respective compartment.

sedation = test: Accelerating RotaRod (sedation); details: rat, SC
[4] = Respiratory depression test (O2 partial pressure); details: rat, SC, at 30 minutes, vehicle 96 mm Hg
MOR [5] = molecular target: T2, MOR; details: vs morphine; cited from earlier work
MOR [6] = molecular target: T2, MOR; details: cell-based assays; cited from earlier work
[7] = patients following bunionectomy; cited from earlier work
[8] = healthy volunteers; cited from earlier work

SMILES | EC50 (human OPRM1 (μ, MOR) [1]) | EC50 (human OPRM1 (μ, MOR) [2]) | Bias Factor (ΔRA of compound relative to ΔRA of DAMGO) × 10 (MOR [3]) | ΔRA of compound (MOR [3]) | Emax (human OPRM1 (μ, MOR) [1]) | Emax (human OPRM1 (μ, MOR) [2]) | also measured
CN(C)C[C@H]1CN(Cc2ccc(F)cc2Cl)CC[C@]1(O)c1cccc(C(N)=O)c1 (single isomer, unassigned; ent-a) [Ent-A-syn-(6)] | 0.163 µM | 3.17 µM | −0.92 | −1.63 |  |  | cAMP Emax (human OPRM1 (μ, MOR) [1]): 132%; β-Arrestin Emax (human OPRM1 (μ, MOR) [2]): 60%
CN(C)C[C@@H]1CN(Cc2ccc(F)cc2Cl)CC[C@@]1(O)c1cccc(C(N)=O)c1 (single isomer, unassigned; ent-b) [Ent-B-syn-(6), Ent-B-syn 3-(1-(2-chloro-4-fluorobenzyl)-3-((dimethylamino)methyl)-4-hydroxypiperidin-4-yl)benzamide] | 0.463 µM | 3.67 µM | −1.06 | −1.65 |  |  | cAMP Emax (human OPRM1 (μ, MOR) [1]): 111%; β-Arrestin Emax (human OPRM1 (μ, MOR) [2]): 20%
CN(C)CC1CN(Cc2ccc(F)cc2Cl)CCC1(O)c1cccc(C(N)=O)c1 (centres unmarked) [(6), 3-[1-(2-Chloro-4-fluoro-benzyl)-3-dimethylaminomethyl-4-hydroxy-piperidin-4-yl]-benzamide] | 0.102 µM | 2.56 µM | −2.89 | −1.83 | 107% | 40% | 
CN(C)CC1CN(CCc2ccccc2)CCC1(O)c1cccc(C(N)=O)c1 (centres unmarked) [(9), 3-(3-Dimethylaminomethyl-4-hydroxy-1-phenethyl-piperidin-4-yl)-benzamide] | 0.034 µM | 0.83 µM | −6.76 | −2.22 | 118% | 18% | 
CN(C)CC1CN(Cc2ccsc2)CCC1(O)c1cccc(C(N)=O)c1 (centres unmarked) [(11), 3-(3-Dimethylaminomethyl-4-hydroxy-1-thiophen-3-ylmethyl-piperidin-4-yl)-benzamide] | 0.55 µM | 10.7 µM | −2.31 | −1.77 | 112% | 37% | 
CN(C)CC1CN(CCc2ccsc2)CCC1(O)c1cccc(C(N)=O)c1 (centres unmarked) [(15), 3-(3-((Dimethylamino)methyl)-4-hydroxy-1-(2-(thiophen-3-yl)ethyl)piperidin-4-yl)benzamide] | 0.067 µM | > 100 µM |  |  | 95% | < 10% | 
COc1ccc(CCN2CCC(O)(c3cccc(C(N)=O)c3)C(CN(C)C)C2)cc1 (centres unmarked) [(17), 3-(3-((Dimethylamino)methyl)-4-hydroxy-1-(4-methoxyphenethyl)piperidin-4-yl)benzamide] | 0.467 µM | > 100 µM |  |  | 84% | < 10% | 
CN(C)CC1CN(CCc2ccc(O)cc2)CCC1(O)c1cccc(C(N)=O)c1 (centres unmarked) [(18), 3-(3-((Dimethylamino)methyl)-4-hydroxy-1-(4-hydroxyphenethyl)piperidin-4-yl)benzamide] | 0.16 µM | 3.1 µM | −3.73 | −1.91 | 103% | 24% | 
CN(C)CC1CN(CCCc2ccccc2)CCC1(O)c1cccc(C(N)=O)c1 (centres unmarked) [(20), 3-[3-Dimethylaminomethyl-4-hydroxy-1-(3-phenyl-propyl)-piperidin-4-yl]-benzamide] | 0.01 µM | 0.27 µM | −7.37 | −2.28 | 103% | 14% | 
CN(C)C[C@H]1CN(CCCc2ccc(F)cc2Cl)CC[C@]1(O)c1cccc(C(N)=O)c1 [(23a), 3-((3S,4R)-1-(3-(2-Chloro-4-fluorophenyl)propyl)-3-((dimethylamino)methyl)-4-hydroxypiperidin-4-yl)benzamide] |  |  |  |  |  |  | Dose to reach the ED80 of morphine in rat tail flick (tail flick response): 4.5 mg/kg; Reduction in transit relative to vehicle (intestinal transit; 4.5 mg/kg): no significant reduction in transit; Reduction in transit relative to vehicle (intestinal transit; 18 mg/kg): small reduction in transit; Preference for drug chamber over saline chamber (place preference; 18 mg/kg): no preference for the (23a) chamber over the saline chamber; Sedation, accelerating RotaRod (sedation; 4.5 mg/kg): no sedation; Sedation, accelerating RotaRod (sedation; 18 mg/kg): no sedation; O2 partial pressure ([4]; 4.5 mg/kg): the same O2 partial pressure as vehicle; O2 partial pressure ([4]; 18 mg/kg): the same O2 partial pressure as vehicle
CN(C)C[C@H]1CN(CCc2ccsc2)CC[C@]1(O)c1cccc(C(N)=O)c1 [(41a), 3-((3S,4R)-3-((Dimethylamino)methyl)-4-hydroxy-1-(2-(thiophen-3-yl)ethyl)piperidin-4-yl)benzamide] |  |  |  |  |  |  | Dose to reach the ED80 of morphine in rat tail flick (tail flick response): 5 mg/kg; Reduction in transit relative to vehicle (intestinal transit; 5 mg/kg): no significant reduction in transit; Reduction in transit relative to vehicle (intestinal transit; 20 mg/kg): no significant reduction in transit; Preference for drug chamber over saline chamber (place preference; 20 mg/kg): no preference for the (41a) chamber over the saline chamber; Sedation, accelerating RotaRod (sedation; 5 mg/kg): no sedation; Sedation, accelerating RotaRod (sedation; 20 mg/kg): no sedation; O2 partial pressure ([4]; 5 mg/kg): the same O2 partial pressure as vehicle; O2 partial pressure ([4]; 20 mg/kg): the same O2 partial pressure as vehicle
C[C@@H](NC(=O)[C@@H](N)Cc1ccc(O)cc1)C(=O)NCC(=O)N(C)[C@@H](Cc1ccccc1)C(=O)NCCO [DAMGO, H-Tyr-D-Ala-Gly-NMe-Phe-Gly-OH, reference compound] |  |  |  |  |  | 98% | 
COc1ccsc1CNCC[C@@]1(c2ccccn2)CCOC2(CCCC2)C1 [oliceridine, N-[(3-methoxythiophen-2-yl)methyl]-2-[(9R)-9-pyridin-2-yl-6-oxaspiro[4.5]decan-9-yl]ethanamine] |  |  |  |  |  |  | G-protein signaling Emax (MOR [5]): 83%; β-arrestin recruitment Emax (MOR [6]): 14%; Level of analgesia [7]: higher level of analgesia; On-target adverse effects (such as nausea, and decrease in respiratory drive) [8]: decreased on-target adverse effects
